Literature values, collected in patent US20250195401A1, “COSMETIC COMPOSITION OF LIPOSOMES CONTAINING AN EXTRACT OF HAEMATOCOCCUS PLUVIALIS, TETRAHEXYLDECYL ASCORBATE AND ECTOIN” (IMAGE INTERNATIONAL MANUFACTURING, LLC, priority 2023, published 2025).

Details: 6 h at 190° C.

Structure (SMILES): CC1=N[C@H](C(=O)O)CCN1 [Ectoine, (4S)-2-methyl-1,4,5,6-tetrahydropyrimidine-4-carboxylic acid]
- stability at high temperatures: very stable
